ChEMBL document CHEMBL5212743, “Selectivity Literature for EUbOPEN Chemogenomics Library wave 3” (2023)
Each block holds one compound with its values, some of them ahead of it.

How the values were obtained:
[1] = biological target: T1, Dual specificity protein kinase CLK1 (Homo sapiens, UniProt P49759); assay: Selectivity interaction (Enzymatic assay) EUB0000609a CLK1
[2] = biological target: Dual specificity mitogen-activated protein kinase kinase 4 (Homo sapiens) (UniProt P45985); assay: Selectivity interaction (Ambit kinase binding assay panel) EUB0000609a MAP2K4; conditions: at 10 µM
Dual specificity mitogen-activated protein kinase kinase 4 (Homo sapiens), sequence (P45985 whole entry): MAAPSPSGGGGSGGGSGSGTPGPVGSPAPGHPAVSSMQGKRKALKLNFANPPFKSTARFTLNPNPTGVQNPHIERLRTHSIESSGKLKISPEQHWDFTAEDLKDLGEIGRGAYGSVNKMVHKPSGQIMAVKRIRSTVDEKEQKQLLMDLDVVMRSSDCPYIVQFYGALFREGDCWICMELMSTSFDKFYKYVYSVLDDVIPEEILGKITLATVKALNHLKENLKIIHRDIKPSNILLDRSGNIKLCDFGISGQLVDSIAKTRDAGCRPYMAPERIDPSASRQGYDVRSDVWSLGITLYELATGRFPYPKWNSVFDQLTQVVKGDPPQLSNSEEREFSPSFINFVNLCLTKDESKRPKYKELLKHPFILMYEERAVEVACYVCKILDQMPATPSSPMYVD

Insulin receptor [3] = biological target: T2, Insulin receptor (Homo sapiens, UniProt P06213); assay: Selectivity interaction (Ambit kinase binding assay panel) EUB0000609a INSR; conditions: at 10 µM
[4] = biological target: T3, Leukocyte tyrosine kinase receptor (Homo sapiens, UniProt P29376); assay: Selectivity interaction (Enzymatic assay) EUB0000609a LTK
T3 sequence (P29376 whole entry): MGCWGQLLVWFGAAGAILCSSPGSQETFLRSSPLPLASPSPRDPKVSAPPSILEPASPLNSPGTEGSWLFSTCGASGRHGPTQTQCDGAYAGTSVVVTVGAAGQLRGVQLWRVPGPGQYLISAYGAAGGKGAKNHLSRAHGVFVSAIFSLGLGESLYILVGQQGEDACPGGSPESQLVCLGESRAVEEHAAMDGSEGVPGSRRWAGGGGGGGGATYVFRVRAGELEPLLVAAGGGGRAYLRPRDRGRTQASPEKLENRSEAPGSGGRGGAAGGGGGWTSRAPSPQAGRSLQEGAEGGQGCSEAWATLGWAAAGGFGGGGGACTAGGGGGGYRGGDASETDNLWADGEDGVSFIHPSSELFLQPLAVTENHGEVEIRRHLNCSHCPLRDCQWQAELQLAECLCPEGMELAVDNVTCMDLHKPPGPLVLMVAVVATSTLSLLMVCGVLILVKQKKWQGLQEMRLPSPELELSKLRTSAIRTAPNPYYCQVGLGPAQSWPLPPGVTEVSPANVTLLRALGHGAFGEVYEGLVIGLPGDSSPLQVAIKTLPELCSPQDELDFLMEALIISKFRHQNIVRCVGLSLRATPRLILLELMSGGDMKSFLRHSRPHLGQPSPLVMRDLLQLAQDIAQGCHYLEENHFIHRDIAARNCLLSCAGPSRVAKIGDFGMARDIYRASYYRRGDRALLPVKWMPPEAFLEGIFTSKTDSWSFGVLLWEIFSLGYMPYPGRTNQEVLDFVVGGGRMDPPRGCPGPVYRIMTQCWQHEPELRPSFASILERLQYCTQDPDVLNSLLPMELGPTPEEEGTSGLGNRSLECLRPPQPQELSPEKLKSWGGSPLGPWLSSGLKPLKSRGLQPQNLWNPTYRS

Insulin receptor [5] = biological target: T2, Insulin receptor; assay: Selectivity interaction (Enzymatic assay) EUB0000609a INSR
[6] = biological target: T4, Insulin-like growth factor 1 receptor (Homo sapiens, UniProt P08069); assay: Selectivity interaction (Ambit kinase binding assay panel) EUB0000609a IGF1R; conditions: at 10 µM
T4 sequence (P08069 31-736 limits assumed): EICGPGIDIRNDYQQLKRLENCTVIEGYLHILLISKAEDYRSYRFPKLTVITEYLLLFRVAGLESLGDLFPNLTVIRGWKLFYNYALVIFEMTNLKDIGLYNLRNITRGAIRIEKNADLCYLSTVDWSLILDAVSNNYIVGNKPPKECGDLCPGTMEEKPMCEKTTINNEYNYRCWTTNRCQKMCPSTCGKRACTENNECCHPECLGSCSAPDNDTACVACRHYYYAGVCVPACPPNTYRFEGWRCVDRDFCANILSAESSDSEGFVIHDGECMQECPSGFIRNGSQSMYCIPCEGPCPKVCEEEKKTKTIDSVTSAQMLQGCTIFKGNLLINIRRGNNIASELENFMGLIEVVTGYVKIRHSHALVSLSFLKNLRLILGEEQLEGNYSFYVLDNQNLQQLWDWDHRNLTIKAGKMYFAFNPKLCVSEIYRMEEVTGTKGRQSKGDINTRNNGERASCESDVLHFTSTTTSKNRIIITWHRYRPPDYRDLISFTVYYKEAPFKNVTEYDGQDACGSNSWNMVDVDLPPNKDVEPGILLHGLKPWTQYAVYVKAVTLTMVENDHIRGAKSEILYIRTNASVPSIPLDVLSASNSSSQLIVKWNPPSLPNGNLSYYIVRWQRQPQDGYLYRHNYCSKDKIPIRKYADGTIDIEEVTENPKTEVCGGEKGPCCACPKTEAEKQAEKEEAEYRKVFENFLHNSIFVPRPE
T4 sequence (P08069 741-1367 limits assumed): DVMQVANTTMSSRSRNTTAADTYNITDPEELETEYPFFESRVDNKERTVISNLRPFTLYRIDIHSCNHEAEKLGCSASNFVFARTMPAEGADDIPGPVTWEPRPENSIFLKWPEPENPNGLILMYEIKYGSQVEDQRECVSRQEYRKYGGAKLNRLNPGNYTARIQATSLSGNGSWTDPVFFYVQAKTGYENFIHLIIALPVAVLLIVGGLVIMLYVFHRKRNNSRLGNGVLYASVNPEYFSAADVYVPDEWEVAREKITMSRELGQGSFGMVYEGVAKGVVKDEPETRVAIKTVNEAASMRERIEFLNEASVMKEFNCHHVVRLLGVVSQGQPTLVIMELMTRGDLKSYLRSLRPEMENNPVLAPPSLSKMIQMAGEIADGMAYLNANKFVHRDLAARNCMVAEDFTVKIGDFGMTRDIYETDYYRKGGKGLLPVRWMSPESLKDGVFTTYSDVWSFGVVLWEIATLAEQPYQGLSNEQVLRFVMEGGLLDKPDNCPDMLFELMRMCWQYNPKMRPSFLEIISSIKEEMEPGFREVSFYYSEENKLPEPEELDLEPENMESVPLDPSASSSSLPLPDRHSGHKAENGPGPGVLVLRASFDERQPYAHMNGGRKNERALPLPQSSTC

[7] = biological target: T4, Insulin-like growth factor 1 receptor; assay: Selectivity interaction (Enzymatic assay) EUB0000609a IGF1R
[8] = biological target: Cyclin-G-associated kinase (Homo sapiens, UniProt O14976); assay: Selectivity interaction (Enzymatic assay) EUB0000609a GAK
[9] = biological target: T5, Insulin receptor-related protein (Homo sapiens, UniProt P14616); assay: Selectivity interaction (Ambit kinase binding assay panel) EUB0000609a INSRR; conditions: at 10 µM
T5 sequence (P14616 27-742 limits assumed): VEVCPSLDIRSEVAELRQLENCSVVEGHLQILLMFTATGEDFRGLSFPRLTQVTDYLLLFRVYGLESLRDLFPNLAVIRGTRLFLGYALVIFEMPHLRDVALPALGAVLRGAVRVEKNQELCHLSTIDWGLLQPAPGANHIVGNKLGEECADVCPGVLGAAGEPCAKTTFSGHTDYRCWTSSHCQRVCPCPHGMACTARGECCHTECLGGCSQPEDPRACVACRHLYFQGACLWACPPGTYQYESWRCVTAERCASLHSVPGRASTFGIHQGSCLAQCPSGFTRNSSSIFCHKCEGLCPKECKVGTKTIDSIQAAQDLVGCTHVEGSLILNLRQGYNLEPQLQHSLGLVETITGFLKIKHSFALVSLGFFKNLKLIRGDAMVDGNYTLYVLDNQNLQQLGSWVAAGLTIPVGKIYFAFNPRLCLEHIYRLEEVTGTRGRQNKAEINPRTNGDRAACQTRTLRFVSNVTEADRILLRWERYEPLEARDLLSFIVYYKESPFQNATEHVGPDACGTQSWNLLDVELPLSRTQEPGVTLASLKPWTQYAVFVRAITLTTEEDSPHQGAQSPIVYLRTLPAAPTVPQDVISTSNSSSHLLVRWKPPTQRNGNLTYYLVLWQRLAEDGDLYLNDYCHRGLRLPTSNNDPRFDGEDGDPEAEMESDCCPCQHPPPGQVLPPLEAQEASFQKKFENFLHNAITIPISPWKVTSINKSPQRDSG
T5 sequence (P14616 747-1297 limits assumed): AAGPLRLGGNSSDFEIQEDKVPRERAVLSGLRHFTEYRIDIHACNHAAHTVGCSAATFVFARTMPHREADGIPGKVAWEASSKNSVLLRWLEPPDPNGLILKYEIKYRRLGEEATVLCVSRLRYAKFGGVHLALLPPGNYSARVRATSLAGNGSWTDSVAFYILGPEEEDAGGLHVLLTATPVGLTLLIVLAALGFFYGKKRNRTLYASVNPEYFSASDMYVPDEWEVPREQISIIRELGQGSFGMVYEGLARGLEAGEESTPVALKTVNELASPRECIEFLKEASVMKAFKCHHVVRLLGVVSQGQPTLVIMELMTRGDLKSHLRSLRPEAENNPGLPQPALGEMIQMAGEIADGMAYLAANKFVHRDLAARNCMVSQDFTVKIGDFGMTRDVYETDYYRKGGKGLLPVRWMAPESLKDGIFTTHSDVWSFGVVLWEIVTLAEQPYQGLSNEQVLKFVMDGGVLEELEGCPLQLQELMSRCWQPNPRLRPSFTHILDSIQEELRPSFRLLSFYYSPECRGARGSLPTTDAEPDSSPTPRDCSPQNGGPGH

[10] = biological target: Non-receptor tyrosine-protein kinase TNK1 (Homo sapiens, UniProt Q13470); assay: Selectivity interaction (Enzymatic assay) EUB0000609a TNK1
Non-receptor tyrosine-protein kinase TNK1, sequence (Q13470 whole entry): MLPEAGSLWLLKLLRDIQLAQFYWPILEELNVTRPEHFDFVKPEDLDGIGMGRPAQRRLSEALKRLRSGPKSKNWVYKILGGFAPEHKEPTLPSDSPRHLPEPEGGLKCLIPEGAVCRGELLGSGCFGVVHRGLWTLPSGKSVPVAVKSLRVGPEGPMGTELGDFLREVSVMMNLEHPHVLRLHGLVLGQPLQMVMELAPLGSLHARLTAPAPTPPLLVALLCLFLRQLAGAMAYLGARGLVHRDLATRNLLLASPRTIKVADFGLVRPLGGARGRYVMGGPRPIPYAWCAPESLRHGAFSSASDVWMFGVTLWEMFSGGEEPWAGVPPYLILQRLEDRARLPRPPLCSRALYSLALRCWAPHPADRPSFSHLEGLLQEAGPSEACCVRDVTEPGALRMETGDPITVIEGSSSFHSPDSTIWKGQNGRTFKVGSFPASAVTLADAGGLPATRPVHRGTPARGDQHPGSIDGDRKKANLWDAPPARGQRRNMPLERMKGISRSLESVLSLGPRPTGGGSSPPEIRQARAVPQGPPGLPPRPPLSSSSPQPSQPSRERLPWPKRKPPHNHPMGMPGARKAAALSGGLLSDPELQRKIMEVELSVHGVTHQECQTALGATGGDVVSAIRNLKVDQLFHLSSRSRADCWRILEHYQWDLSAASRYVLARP

[11] = biological target: Serine/threonine-protein kinase RIO3 (Homo sapiens) (UniProt O14730); assay: Selectivity interaction (Ambit kinase binding assay panel) EUB0000609a RIOK3; conditions: at 10 µM
[12] = biological target: T6, ALK tyrosine kinase receptor (Homo sapiens, UniProt Q9UM73); assay: Selectivity interaction (Ambit kinase binding assay panel) EUB0000609a ALK; conditions: at 10 µM
[13] = biological target: T7, Protein-tyrosine kinase 2-beta (Homo sapiens, UniProt Q14289); assay: Selectivity interaction (Ambit kinase binding assay panel) EUB0000609a PTK2B; conditions: at 10 µM
[14] = biological target: T8, Mitogen-activated protein kinase 1 (Homo sapiens, UniProt P28482); assay: Selectivity interaction (Ambit kinase binding assay panel) EUB0000609a MAPK1; conditions: at 10 µM
T8 sequence (P28482 whole entry): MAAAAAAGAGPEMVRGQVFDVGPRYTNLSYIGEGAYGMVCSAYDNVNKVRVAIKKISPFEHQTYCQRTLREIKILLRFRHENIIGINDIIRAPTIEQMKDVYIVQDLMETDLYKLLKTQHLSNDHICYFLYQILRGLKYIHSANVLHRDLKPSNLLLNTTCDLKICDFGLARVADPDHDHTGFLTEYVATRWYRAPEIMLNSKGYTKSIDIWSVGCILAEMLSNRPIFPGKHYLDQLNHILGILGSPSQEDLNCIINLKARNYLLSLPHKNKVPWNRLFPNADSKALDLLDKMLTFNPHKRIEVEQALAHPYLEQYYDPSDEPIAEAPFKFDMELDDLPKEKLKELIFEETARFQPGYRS

Focal adhesion kinase 1 = Focal adhesion kinase 1 (Homo sapiens, UniProt Q05397); assay: Selectivity interaction (Enzymatic assay) EUB0000609a PTK2
[15] = biological target: T6, ALK tyrosine kinase receptor; assay: Selectivity interaction (Enzymatic assay) EUB0000609a ALK
[16] = biological target: T7, Protein-tyrosine kinase 2-beta; assay: Selectivity interaction (Enzymatic assay) EUB0000609a PTK2B
[17] = biological target: T3, Leukocyte tyrosine kinase receptor; assay: Selectivity interaction (Ambit kinase binding assay panel) EUB0000609a LTK; conditions: at 10 µM
[18] = biological target: T1, Dual specificity protein kinase CLK1; assay: Selectivity interaction (Ambit kinase binding assay panel) EUB0000609a CLK1; conditions: at 10 µM
Activated CDC42 kinase 1 = Activated CDC42 kinase 1 (Homo sapiens, UniProt Q07912); assay: Selectivity interaction (Enzymatic assay) EUB0000609a TNK2
[19] = biological target: T5, Insulin receptor-related protein; assay: Selectivity interaction (Enzymatic assay) EUB0000609a INSRR
[20] = biological target: Mitogen-activated protein kinase 8 (Homo sapiens, UniProt P45983); assay: Selectivity interaction (Ambit kinase binding assay panel) EUB0000609a MAPK8; conditions: at 10 µM
[21] = biological target: T8, Mitogen-activated protein kinase 1; assay: Selectivity interaction (Enzymatic assay) EUB0000609a MAPK1
[22] = biological target: T9, Cyclin-G-associated kinase (Homo sapiens) (UniProt O14976); assay: Selectivity interaction (Ambit kinase binding assay panel) EUB0000609a GAK; conditions: at 10 µM
T9 sequence (whole entry): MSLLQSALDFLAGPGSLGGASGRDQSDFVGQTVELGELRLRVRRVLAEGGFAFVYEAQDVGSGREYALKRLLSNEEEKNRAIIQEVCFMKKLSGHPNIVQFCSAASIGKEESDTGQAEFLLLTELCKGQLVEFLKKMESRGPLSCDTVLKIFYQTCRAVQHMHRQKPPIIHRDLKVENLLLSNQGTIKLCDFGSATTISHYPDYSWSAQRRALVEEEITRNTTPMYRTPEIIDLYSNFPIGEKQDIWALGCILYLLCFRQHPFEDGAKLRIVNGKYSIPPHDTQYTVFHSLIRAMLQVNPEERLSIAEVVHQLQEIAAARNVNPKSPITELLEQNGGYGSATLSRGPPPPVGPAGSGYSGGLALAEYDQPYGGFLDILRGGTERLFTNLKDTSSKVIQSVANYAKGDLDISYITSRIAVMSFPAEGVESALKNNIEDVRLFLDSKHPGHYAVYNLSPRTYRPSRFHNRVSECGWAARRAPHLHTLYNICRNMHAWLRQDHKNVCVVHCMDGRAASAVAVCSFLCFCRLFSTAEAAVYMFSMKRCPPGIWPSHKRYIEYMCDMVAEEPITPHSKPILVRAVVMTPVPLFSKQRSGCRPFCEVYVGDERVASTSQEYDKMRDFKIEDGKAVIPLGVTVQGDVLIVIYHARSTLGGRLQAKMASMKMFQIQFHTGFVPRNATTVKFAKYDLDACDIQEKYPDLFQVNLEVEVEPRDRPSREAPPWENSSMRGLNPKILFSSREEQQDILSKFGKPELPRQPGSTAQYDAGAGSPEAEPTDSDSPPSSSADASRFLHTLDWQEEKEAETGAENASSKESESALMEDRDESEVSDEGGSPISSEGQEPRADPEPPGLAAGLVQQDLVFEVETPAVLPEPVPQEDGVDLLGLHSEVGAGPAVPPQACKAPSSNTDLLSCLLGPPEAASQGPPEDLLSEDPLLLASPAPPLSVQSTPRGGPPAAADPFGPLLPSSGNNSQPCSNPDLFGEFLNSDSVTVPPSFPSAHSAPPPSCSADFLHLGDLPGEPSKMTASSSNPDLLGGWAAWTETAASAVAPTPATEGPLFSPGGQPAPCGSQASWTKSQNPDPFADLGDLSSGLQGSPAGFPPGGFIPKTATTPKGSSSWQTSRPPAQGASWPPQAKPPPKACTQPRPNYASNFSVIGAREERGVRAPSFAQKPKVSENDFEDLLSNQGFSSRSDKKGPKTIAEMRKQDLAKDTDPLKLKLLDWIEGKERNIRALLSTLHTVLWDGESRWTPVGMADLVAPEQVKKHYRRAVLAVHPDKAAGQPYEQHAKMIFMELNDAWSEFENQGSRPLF

[23] = biological target: Serine/threonine-protein kinase N2 (Homo sapiens) (UniProt Q16513); assay: Selectivity interaction (Ambit kinase binding assay panel) EUB0000609a PKN2; conditions: at 10 µM
[24] = biological target: T10, Mitogen-activated protein kinase kinase kinase 13 (Homo sapiens) (UniProt O43283); assay: Selectivity interaction (KinomeScan (DiscoverX)) EUB0000715a MAP3K13; conditions: at 100 nM
T10 sequence (whole entry): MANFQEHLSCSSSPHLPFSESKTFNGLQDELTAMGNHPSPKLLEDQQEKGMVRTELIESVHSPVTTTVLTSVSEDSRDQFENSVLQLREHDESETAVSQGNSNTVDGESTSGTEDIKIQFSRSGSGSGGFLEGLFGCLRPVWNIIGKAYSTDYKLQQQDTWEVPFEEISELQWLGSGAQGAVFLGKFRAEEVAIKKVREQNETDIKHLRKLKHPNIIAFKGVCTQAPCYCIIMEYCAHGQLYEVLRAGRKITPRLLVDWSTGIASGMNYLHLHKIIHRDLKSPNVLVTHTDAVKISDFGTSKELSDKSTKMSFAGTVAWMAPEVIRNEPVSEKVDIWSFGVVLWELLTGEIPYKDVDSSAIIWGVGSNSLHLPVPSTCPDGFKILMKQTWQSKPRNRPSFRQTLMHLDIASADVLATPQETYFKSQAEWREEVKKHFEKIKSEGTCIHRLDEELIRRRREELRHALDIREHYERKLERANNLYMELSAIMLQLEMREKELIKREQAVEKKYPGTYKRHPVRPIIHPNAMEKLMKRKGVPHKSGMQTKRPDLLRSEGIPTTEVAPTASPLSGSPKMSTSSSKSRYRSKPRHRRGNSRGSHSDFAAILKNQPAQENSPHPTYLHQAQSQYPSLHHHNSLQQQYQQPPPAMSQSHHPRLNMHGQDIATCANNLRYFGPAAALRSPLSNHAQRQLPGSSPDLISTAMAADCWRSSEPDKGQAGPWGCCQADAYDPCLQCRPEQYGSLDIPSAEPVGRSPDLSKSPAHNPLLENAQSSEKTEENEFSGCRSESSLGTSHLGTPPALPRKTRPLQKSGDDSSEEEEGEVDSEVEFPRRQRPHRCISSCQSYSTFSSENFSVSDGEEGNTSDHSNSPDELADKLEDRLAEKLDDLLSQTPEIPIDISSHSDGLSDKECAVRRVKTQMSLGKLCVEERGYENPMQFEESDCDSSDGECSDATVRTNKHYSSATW

[25] = biological target: T11, Sodium/nucleoside cotransporter 2 (Homo sapiens, UniProt O43868); assay: Selectivity interaction (Enzymatic assay (PanLabs Profiling)) EUB0000715a SLC28A2
T11 sequence (O43868 whole entry): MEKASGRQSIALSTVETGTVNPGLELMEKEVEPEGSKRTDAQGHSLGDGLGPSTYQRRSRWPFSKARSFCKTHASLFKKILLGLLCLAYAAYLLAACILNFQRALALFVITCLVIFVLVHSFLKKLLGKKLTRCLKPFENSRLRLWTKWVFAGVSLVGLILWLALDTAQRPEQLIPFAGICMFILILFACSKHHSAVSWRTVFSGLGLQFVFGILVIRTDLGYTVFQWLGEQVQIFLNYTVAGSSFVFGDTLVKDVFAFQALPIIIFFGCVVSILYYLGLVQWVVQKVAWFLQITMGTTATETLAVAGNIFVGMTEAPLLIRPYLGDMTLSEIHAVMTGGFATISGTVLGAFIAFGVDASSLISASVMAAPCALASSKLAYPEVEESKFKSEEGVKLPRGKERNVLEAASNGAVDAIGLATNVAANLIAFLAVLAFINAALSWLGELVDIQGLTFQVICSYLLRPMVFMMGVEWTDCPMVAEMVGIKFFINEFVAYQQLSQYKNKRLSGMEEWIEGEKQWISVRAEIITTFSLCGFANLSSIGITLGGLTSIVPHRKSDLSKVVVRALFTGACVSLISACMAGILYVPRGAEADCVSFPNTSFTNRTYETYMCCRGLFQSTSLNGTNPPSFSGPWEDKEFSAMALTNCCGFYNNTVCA

[26] = biological target: Epidermal growth factor receptor (Homo sapiens, UniProt P00533); assay: Selectivity interaction (KinomeScan (DiscoverX)) EUB0000715a EGFR; conditions: at 100 nM
[27] = biological target: T12, Tyrosine-protein kinase JAK3 (Homo sapiens) (UniProt P52333); assay: Selectivity interaction (KinomeScan (DiscoverX)) EUB0000715a JAK3; conditions: at 100 nM
T12 sequence (whole entry): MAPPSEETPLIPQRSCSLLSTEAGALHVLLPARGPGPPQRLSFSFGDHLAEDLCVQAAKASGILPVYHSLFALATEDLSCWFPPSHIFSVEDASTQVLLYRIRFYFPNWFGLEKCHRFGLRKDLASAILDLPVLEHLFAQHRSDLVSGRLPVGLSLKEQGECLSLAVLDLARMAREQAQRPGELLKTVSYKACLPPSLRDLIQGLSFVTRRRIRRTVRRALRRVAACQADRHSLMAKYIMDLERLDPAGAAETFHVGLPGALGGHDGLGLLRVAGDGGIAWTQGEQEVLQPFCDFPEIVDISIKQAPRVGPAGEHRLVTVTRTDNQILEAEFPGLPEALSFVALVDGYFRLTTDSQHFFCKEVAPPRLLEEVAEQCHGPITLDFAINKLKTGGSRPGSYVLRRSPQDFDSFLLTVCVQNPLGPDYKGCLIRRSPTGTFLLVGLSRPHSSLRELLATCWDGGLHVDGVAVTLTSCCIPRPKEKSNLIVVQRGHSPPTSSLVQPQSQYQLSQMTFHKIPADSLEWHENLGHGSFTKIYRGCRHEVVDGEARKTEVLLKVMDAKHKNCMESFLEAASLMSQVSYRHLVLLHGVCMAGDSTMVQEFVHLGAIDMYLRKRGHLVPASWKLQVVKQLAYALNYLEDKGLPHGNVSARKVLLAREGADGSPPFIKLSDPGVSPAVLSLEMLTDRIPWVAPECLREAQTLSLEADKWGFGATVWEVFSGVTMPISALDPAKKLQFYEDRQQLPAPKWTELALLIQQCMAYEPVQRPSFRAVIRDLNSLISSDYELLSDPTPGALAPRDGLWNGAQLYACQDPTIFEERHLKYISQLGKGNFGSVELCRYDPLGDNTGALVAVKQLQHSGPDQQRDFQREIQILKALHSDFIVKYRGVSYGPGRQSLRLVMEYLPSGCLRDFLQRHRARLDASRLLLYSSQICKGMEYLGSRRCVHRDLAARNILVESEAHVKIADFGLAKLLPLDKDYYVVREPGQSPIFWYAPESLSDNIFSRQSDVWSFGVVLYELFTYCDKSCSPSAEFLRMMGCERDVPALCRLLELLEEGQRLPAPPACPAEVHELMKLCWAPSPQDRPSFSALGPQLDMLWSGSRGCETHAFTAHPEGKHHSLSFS

IC50 [1]: 1900 nM
% of control [2]: 6.2%
% of control (Insulin receptor [3]): 0.15%
IC50 [4]: 29 nM
IC50 (Insulin receptor [5]): 470 nM
% of control [6]: 0.9%
IC50 [7]: 750 nM
IC50 [8]: 1100 nM
% of control [9]: 2%
IC50 [10]: 2600 nM
% of control [11]: 0.5%
% of control [12]: 8.9%
% of control [13]: 0.5%
% of control [14]: 6%
IC50 (Focal adhesion kinase 1): 440 nM
IC50 [15]: 21 nM
IC50 [16]: 280 nM
% of control [17]: 1.2%
% of control [18]: 7.3%
IC50 (Activated CDC42 kinase 1): 3100 nM
IC50 [19]: 1200 nM
% of control [20]: 5.2%
IC50 [21]: 2900 nM
% of control [22]: 5.4%
% of control [23]: 0.1%
Structure (SMILES): COc1cc(N2CCC(O)CC2)ccc1Nc1cc(Nc2ccccc2S(=O)(=O)C(C)C)c2cc[nH]c2n1

% of control [24]: 0%
IC50 [25]: 9700 nM
% of control [26]: 43%
% of control [27]: 0%
Structure (SMILES): C[C@@H]1CN(c2cc(-c3n[nH]c4ccc(OC5(C)CC5)cc34)ncn2)C[C@H](C)O1 [MLi-2]
